Where “and” joins values, the source holds several entries; their conditions need not be identical. Equal entries are not always repeated.

The experiment has as its system NCI-H1876 tumor spheroid viability. Briefly: Anticancer human tumor NCI-H1876 cell line growth inhibition.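 For all read-outs here: spheroids exposed to compounds for seven days before the viability read.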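 For viability, T/C: percent of DMSO vehicle control viability so 100% = vehicle.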 The settings on record: spheroids with HUVEC and MSC; for viability, T/C: stronger effect = lower value. The text has this: Multicellular complex tumor spheroid response to DNA repair inhibitors in combination with DNA-damaging drugs
This study explores the anticancer activities of DNA-damaging drugs and inhibitors of DNA damage repair, both as single agents and in combinations. Complex tumor spheroids comprised of malignant cells, endothelial cells and mesenchymal stem cells served as an in vitro model for human solid tumors. This model system incorporates physiologically relevant features and patient-derived or established malignant cell lines with clinically relevant genetic alterations from many tumor types. Twenty-six patient-derived or established malignant cell lines were evaluated representing sarcoma, melanoma, small cell lung cancer (SCLC), non-small cell lung cancer (NSCLC), as well as bladder, ovarian and pancreatic cancers. The concentration ranges selected for each drug and investigational agent were based upon clinically achievable concentrations if the clinical Cmax of the agent was known.
Compounds. The drugs and compounds olaparib (NSC753686), talazoparib (NSC767125), berzosertib (NSC777718), elimusertib (NSC800525), nedisertib (NSC802822), VX-984 (NSC792969), AZD-1390 (NSC803789), temozolomide (NSC362856), topotecan (NSC609699), trabectedin (NSC813783), staurosporine (NSC755774), and gemcitabine (NSC613327) were obtained from the National Cancer Institute (NCI) Developmental Therapeutics Program Chemical Repository. The FDA-approved anticancer drug set is available from the Developmental Therapeutics Program at https://dtp.cancer.gov/organization/dscb/obtaining/available_plates.htm. […] The stock solutions were prepared in dimethyl sulfoxide (DMSO, Sigma-Aldrich, St. Louis, MO, cat. D2650) at 400-fold the tested concentration and stored at -70 degrees C. Prior to their use, the stock solutions were diluted in fresh medium and the final DMSO concentration in the assay was 0.25% (v/v). All drugs and investigational agents were tested over a range starting from a high concentration at or near the clinical Cmax and decreasing in half-log increments. If the clinical Cmax for an agent had not been determined, the highest concentration tested was 10 microM.
Cell Lines. The patient-derived cancer cell (PDC) lines: 156681-154-R-J1-PDC, 283228-195-R-J1-PDC, 287954-098-R-J1-PDC, 292921-168-R-J2-PDC, 349418-098-R-PDC, 425362-245-T-J1-PDC, 556581-035-R-J1-PDC, and BL0293-F563-PDC were received from the NCI Patient-Derived Models Repository (PDMR, https://pdmr.cancer.gov). The established cell lines HS-SY-2 (RRID:CVCL_8719), MPNST, and SYO-1 (RRID:CVCL_7146) were obtained from the Sloan Kettering Institute. The alveolar soft parts sarcoma cell line ASPS-1 (RRID:CVCL_S738) was established at the NCI and grown from internal seed stocks. The following established cell lines were purchased from the American Type Culture Collection (ATCC, Manassas, VA): G-401 (ATCC, cat. CRL-1441, RRID:CVCL_0270), SW982 (ATCC, cat. HTB-93, RRID:CVCL_1734), VA-ES-BJ (ATCC, cat. CRL-2138, RRID:CVCL_1785), NCI-H719 (ATCC, cat. CRL-5837, RRID:CVCL_1582), NCI-H196 (ATCC, cat. CRL-5823, RRID:CVCL_1509), NCI-H841 (ATCC, cat. CRL-5845, RRID:CVCL_1595), NCI-H1618 (ATCC, cat. CRL-5879, RRID:CVCL_1480), NCI-H1876 (ATCC, cat. CRL-5902, RRID:CVCL_1503), DMS 114 (ATCC, cat. CRL-2066; RRID:CVCL_1174), NCI-H211 (ATCC, cat. CRL-5824; RRID:CVCL_1529), and SW 1271 (ATCC, cat. CRL-2177, RRID:CVCL_1716). The small cell lung cancer cell line COR-L88 was purchased from Sigma-Aldrich (cat. 92031917-1VL, RRID:CVCL_1141). The non-small cell lung cancer cell lines NCI-H226 (RRID:CVCL_1544) and NCI-H322M (RRID:CVCL_1557) were established at the NCI and grown from internal seed stocks. Pooled donor human umbilical vein endothelial cells (HUVEC, Lonza, cat. CC-2519) and human mesenchymal stem cells (hMSC, Lonza, cat. PT-2501) were purchased from Lonza (Walkersville, MD).
Cell Culture. All cells were maintained in an incubator at 37 degrees C and 5% CO2 with 95% humidity. […]

Turning to `CC(C)n1c(=O)n(C)c2cnc3cc(F)c(-c4ccc(OCCCN5CCCCC5)nc4)cc3c21` + COc1cc2c(cc1O)CCNC21CSC2c3c(OC(C)=O)c(C)c4c(c3C(COC1=O)N1C(O)C3Cc5cc(C)c(OC)c(O)c5C(C21)N3C)OCO4, the IC50 – broadly, the concentration at which inhibition is half-maximal – reads like this: (curve of first compound, second compound 30 pM) over 10000 nM; (curve of first compound, second compound 94.9 pM) over 10000 nM; (curve of first compound, second compound 0.0003 µM) under 31.6 nM; (curve of first compound, second compound 0.000949 µM) under 31.6 nM; (curve of first compound, second compound 0.003 µM) under 31.6 nM. Further, the viability, T/C (usually the result in the treated group divided by that in the control group, in per cent) reads like this: (second compound 30 pM, first compound 0.0316 µM) 94%; (second compound 30 pM, first compound 0.1 µM) 93.1%; (second compound 30 pM, first compound 0.316 µM) 95%; (second compound 30 pM, first compound 1 µM) 95.5%; (second compound 30 pM, first compound 3.16 µM) 93.7%; (second compound 30 pM, first compound 10 µM) 86.7%. The viability, T/C by setting is: (second compound 94.9 pM, first compound 0.0316 µM) 66.3%; (second compound 94.9 pM, first compound 0.1 µM) 58.5%; (second compound 94.9 pM, first compound 0.316 µM) 49.3%; (second compound 94.9 pM, first compound 1 µM) 53.5%; (second compound 94.9 pM, first compound 3.16 µM) 55.2%; (second compound 94.9 pM, first compound 10 µM) 46.8%. The viability, T/C was 10.7% (second compound 0.0003 µM, first compound 0.0316 µM); 9.04% (second compound 0.0003 µM, first compound 0.1 µM); 11% (second compound 0.0003 µM, first compound 0.316 µM); 9.85% (second compound 0.0003 µM, first compound 1 µM); 12.3% (second compound 0.0003 µM, first compound 3.16 µM); 9.65% (second compound 0.0003 µM, first compound 10 µM). In addition, the viability, T/C is 2.08% (second compound 0.000949 µM, first compound 0.0316 µM); 1.93% (second compound 0.000949 µM, first compound 0.1 µM); 1.77% (second compound 0.000949 µM, first compound 0.316 µM); 1.8% (second compound 0.000949 µM, first compound 1 µM); 2.69% (second compound 0.000949 µM, first compound 3.16 µM); 2.47% (second compound 0.000949 µM, first compound 10 µM). The viability, T/C is, setting by setting: (second compound 0.003 µM, first compound 0.0316 µM) 0.9%; (second compound 0.003 µM, first compound 0.1 µM) 0.67%; (second compound 0.003 µM, first compound 0.316 µM) 0.58%; (second compound 0.003 µM, first compound 1 µM) 0.77%; (second compound 0.003 µM, first compound 3.16 µM) 0.63%; (second compound 0.003 µM, first compound 10 µM) 1.09%.
As to `CNCc1ccc(-c2cc(-c3nc(-c4ccc(S(=O)(=O)C(C)C)cc4)cnc3N)on2)cc1`, the viability, T/C was 97.7% and 86.9% and 104% (compound 0.00949 µM); 76.6% and 72.2% and 99.9% (compound 0.03 µM); 59.2% and 49.9% and 105% (compound 0.0949 µM); 31.1% and 27.1% and 92.3% (compound 0.3 µM); 16.1% and 10.4% and 48.3% (compound 0.949 µM); 10.2% and 0.26% and 20.5% (compound 3 µM). Also, the concentration for half-maximal inhibition (IC50) (curve of compound) was 126 nM and 95.3 nM and 906 nM.

These data come from PubChem BioAssay AID1845207 (Molecular Pharmacology Branch, DTP, NCI, 2023).
